Laboratory results published in US20080009418A1, “Selective Inhibitors” (Alchemia LTD., priority 2004, published 2008).

Assays:
Human δ-opioid (DOP) = target: T1, Human δ-opioid (DOP) (Homo sapiens, UniProt P41143); test: Radioligand binding, human δ-opioid (DOP) membranes, FlashPlate, [3H]-Bremazocine; details: compound at 10 μM; for A1 radioligand binding inhibition: human δ-opioid (DOP) membranes
T1 construct: purchased Perkin Elmer Biosignal
Outline: (§1)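 Cloned human receptor membranes were coated onto FlashPlate wells and incubated with radioligand and compound (added from a 0.5 mM DMSO daughter plate) for 1 hour at room temperature in the dark. Scintillation counting gave percent inhibition, with DMSO defining total and reference ligand defining non-specific binding.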

Human κ-Opioid (KOP) = target: T2, Human κ-Opioid (KOP) (Homo sapiens, UniProt P41145); test: Radioligand binding, human κ-opioid (KOP) membranes, filtration, [3H]-Diprenorphine; details: compound at 10 μM; for A2 radioligand binding inhibition: human κ-opioid (KOP) membranes
T2 construct: purchased Perkin Elmer Biosignal
T2 sequence (P41145 whole entry): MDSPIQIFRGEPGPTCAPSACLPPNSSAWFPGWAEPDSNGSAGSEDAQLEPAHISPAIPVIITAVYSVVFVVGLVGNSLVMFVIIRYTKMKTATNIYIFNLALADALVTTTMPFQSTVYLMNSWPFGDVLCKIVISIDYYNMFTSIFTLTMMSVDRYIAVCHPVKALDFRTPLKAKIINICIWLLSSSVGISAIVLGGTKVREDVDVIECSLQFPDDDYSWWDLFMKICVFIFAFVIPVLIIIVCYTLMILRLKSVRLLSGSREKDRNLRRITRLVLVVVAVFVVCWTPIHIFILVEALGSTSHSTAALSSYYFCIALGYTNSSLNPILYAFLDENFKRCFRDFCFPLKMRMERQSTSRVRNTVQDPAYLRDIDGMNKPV
Outline: (§2)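 Membranes from cloned human receptors were incubated with compound and radioligand for 1 hour at room temperature. Bound ligand was collected on 0.3% PEI-soaked filters, washed with cold 50 mM Tris-HCl pH 7.4, and counted by scintillation. Percent inhibition was computed against DMSO totals and reference-ligand nonspecific wells.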

Human Melanocortin (MC3) = target: T3, Human Melanocortin (MC3) (Homo sapiens, UniProt P41968); test: Radioligand binding, human melanocortin MC3 membranes, FlashPlate, [125I]-NDP-αMSH; details: compound at 10 μM; for A3 radioligand binding inhibition: human melanocortin MC3 membranes
T3 construct: purchased Perkin Elmer Biosignal
T3 sequence (P41968 whole entry): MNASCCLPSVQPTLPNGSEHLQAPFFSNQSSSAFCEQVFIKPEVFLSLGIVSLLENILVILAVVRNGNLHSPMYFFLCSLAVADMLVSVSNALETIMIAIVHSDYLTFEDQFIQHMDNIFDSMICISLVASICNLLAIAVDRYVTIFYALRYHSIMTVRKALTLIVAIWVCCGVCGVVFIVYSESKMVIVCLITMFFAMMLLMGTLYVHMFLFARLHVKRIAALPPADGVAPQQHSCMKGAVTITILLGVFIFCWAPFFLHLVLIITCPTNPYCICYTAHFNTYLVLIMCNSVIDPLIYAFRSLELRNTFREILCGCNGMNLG
Outline: as §1

Human Melanocortin (MC4) = target: T4, Human Melanocortin (MC4) (Homo sapiens, UniProt P32245); test: Radioligand binding, human melanocortin MC4 membranes, FlashPlate, [125I]-NDP-αMSH; details: compound at 10 μM; for A4 radioligand binding inhibition: human melanocortin MC4 membranes
T4 construct: purchased Perkin Elmer Biosignal
T4 sequence (P32245 whole entry): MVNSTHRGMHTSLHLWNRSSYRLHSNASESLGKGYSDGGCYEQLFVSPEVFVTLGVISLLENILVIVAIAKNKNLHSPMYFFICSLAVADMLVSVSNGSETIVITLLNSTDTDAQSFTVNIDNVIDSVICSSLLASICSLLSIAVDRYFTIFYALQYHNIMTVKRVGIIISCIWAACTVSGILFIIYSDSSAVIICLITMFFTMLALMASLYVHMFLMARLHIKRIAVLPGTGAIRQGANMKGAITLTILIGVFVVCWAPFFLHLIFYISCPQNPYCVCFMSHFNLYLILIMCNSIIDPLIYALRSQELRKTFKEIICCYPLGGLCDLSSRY
Outline: as §1

Human melanocortin (MC5) = target: T5, Human melanocortin (MC5) (Homo sapiens, UniProt P33032); test: Radioligand binding, human melanocortin MC5 membranes, FlashPlate, [125I]-NDP-αMSH; details: compound at 10 μM; for A5 radioligand binding inhibition: human melanocortin MC5 membranes
T5 construct: purchased Perkin Elmer Biosignal
T5 sequence (P33032 whole entry): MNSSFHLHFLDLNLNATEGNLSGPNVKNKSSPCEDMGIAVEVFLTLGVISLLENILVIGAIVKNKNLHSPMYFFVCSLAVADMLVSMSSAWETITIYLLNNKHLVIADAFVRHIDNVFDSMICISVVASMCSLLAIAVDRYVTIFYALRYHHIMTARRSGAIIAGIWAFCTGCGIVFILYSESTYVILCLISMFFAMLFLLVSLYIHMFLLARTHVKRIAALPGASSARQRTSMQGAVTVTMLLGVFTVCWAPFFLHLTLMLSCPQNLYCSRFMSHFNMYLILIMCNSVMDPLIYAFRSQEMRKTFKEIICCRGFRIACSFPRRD
Outline: as §1

[1] = target: T6, Human melanin-concentrating hormone (MCH1) (Homo sapiens, UniProt Q99705); test: Radioligand binding, human melanin-concentrating hormone MCH1 membranes, FlashPlate, [125I]-S36057; details: compound at 10 μM; for A6 radioligand binding inhibition: human MCH1 membranes
T6 construct: purchased Perkin Elmer Biosignal
T6 sequence (Q99705 whole entry): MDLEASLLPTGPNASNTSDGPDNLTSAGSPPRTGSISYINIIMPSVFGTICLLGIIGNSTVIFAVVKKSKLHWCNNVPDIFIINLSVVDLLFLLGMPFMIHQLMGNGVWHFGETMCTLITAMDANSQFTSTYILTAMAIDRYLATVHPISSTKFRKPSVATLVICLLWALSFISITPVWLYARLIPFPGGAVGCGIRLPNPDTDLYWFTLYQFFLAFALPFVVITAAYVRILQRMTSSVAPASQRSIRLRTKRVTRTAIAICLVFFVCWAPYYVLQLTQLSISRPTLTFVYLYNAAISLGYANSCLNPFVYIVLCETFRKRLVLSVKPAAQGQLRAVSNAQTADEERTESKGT
Outline: as §1

Human μ-opioid (MOP) = target: T7, Human μ-opioid (MOP) (Homo sapiens, UniProt P35372); test: Radioligand binding, human μ-opioid (MOP) membranes, FlashPlate, [3H]-Naloxone; details: compound at 10 μM; for A7 radioligand binding inhibition: human μ-opioid (MOP) membranes
T7 construct: purchased Perkin Elmer Biosignal
T7 sequence (P35372 whole entry): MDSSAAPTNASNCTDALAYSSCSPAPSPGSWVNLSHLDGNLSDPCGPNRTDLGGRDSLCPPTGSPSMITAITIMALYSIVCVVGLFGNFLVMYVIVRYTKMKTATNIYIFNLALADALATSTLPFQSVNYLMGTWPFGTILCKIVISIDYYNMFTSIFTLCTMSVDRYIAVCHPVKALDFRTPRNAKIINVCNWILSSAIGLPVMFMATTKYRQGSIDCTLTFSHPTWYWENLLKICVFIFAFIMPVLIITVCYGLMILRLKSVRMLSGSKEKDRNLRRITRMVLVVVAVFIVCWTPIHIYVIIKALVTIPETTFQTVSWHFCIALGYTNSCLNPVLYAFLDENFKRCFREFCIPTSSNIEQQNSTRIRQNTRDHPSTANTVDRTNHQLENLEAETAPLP
Outline: as §1

Human neurokinin (NK1) = target: T8, Human neurokinin (NK1) (Homo sapiens, UniProt P25103); test: Radioligand binding, human neurokinin NK1 membranes, filtration, [125I]-Substance P; details: compound at 10 μM; for A8 radioligand binding inhibition: human neurokinin NK1 membranes
T8 construct: purchased Perkin Elmer Biosignal
T8 sequence (P25103 whole entry): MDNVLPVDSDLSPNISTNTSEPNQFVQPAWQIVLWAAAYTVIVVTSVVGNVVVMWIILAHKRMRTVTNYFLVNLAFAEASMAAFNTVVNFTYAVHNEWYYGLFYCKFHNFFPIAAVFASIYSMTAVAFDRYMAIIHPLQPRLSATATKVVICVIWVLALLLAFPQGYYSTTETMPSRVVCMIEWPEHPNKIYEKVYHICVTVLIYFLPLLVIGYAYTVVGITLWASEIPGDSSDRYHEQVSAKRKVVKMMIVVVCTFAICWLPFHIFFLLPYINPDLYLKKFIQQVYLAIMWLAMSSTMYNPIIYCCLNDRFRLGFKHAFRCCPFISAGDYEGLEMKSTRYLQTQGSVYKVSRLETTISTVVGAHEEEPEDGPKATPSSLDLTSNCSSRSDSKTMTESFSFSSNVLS
Outline: as §2

[2] = target: T9, Human neuropeptide Y (NPY-Y1) (Homo sapiens, UniProt P25929); test: Radioligand binding, human neuropeptide Y NPY-Y1 membranes, FlashPlate, [125I]-PYY; details: compound at 10 μM; for A9 radioligand binding inhibition: human NPY-Y1 membranes
T9 construct: purchased Perkin Elmer Biosignal
T9 sequence (P25929 1-384): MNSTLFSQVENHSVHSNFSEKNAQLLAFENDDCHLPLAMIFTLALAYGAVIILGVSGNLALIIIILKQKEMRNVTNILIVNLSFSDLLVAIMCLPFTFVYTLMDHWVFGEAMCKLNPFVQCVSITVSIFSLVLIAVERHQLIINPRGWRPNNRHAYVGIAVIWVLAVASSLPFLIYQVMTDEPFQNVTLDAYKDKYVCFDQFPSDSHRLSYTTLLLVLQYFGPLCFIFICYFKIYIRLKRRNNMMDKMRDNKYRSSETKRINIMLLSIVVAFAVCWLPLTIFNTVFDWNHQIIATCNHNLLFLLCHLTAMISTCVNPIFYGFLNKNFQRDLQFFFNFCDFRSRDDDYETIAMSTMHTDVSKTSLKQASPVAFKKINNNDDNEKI
Outline: as §1

Human opioid (ORL1) = target: T10, Human opioid (ORL1) (Homo sapiens, UniProt P41146); test: Radioligand binding, human opioid ORL1 membranes, FlashPlate, [125I]-Nociceptin; details: compound at 10 μM; for A10 radioligand binding inhibition: human ORL1 membranes
T10 construct: purchased Perkin Elmer Biosignal
T10 sequence (P41146 whole entry): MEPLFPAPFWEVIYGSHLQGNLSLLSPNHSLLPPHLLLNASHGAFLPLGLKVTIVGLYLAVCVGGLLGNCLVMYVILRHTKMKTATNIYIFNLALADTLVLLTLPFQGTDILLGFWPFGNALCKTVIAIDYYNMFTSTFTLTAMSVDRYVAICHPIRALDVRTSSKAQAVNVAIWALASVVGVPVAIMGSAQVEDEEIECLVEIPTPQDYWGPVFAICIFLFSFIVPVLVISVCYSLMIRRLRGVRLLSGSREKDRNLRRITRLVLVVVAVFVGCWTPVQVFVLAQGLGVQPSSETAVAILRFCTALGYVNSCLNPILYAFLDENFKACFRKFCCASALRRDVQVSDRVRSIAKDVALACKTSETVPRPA
Outline: as §1

Mouse urotensin (mUR2) = target: T11, Mouse urotensin (mUR2) (Mus musculus, UniProt Q8VIH9); test: Radioligand binding, mouse urotensin mUR2 membranes, FlashPlate, [125I]-Urotensin II; details: compound at 10 μM; for A11 radioligand binding inhibition: mouse urotensin mUR2 membranes
T11 construct: purchased Perkin Elmer Biosignal
T11 sequence (Q8VIH9 1-385): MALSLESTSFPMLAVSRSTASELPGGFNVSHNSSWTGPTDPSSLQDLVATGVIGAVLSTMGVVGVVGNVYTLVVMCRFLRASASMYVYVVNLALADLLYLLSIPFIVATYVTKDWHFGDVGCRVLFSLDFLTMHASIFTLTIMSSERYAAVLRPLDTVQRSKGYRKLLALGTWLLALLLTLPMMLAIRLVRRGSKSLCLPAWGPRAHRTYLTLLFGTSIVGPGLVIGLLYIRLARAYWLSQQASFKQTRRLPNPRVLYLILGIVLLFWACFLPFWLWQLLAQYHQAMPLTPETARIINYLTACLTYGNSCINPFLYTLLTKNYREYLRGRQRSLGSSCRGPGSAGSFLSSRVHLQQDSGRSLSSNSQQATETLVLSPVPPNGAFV
Outline: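 Cloned mouse urotensin (mUR2) receptor membranes from Perkin Elmer Biosignal were immobilized in FlashPlate microplates using a proprietary coating. Each well got 19.5 μl buffer, then 0.5 μl of DMSO, reference ligand, or compound. Adding 5 μl of [125I]-Urotensin II, diluted to 5× final concentration in binding buffer, started binding. Plates were sealed with TopSeal-A and incubated 1 hour at room temperature in the dark. Wells were counted for 30 seconds each on a TopCount after a 60-second delay, and percentage inhibition was calculated.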

T1 sequence (P41143 whole entry): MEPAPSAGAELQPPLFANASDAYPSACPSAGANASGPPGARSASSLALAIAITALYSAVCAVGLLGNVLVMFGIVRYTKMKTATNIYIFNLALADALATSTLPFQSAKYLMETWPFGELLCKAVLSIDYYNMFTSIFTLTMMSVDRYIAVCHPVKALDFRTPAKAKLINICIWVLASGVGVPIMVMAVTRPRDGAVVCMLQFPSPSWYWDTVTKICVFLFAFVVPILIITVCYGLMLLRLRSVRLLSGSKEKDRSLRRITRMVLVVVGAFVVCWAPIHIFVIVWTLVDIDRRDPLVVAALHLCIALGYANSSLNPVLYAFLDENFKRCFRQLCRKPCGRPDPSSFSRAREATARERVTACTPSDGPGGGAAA

SMILES | A1: inhibition of radioligand binding, human δ-opioid (DOP) (Human δ-opioid (DOP); [3H]-Bremazocine) | A2: inhibition of radioligand binding, human κ-opioid (KOP) (Human κ-Opioid (KOP); [3H]-Diprenorphine) | A3: inhibition of radioligand binding, human melanocortin (MC3) (Human Melanocortin (MC3); [125I]-NDP-αMSH) | A4: inhibition of radioligand binding, human melanocortin (MC4) (Human Melanocortin (MC4); [125I]-NDP-αMSH) | A5: inhibition of radioligand binding, human melanocortin (MC5) (Human melanocortin (MC5); [125I]-NDP-αMSH) | A6: inhibition of radioligand binding, human melanin-concentrating hormone (MCH1) ([1]; [125I]-S36057) | A7: inhibition of radioligand binding, human μ-opioid (MOP) (Human μ-opioid (MOP); [3H]-Naloxone) | A8: inhibition of radioligand binding, human neurokinin (NK1) (Human neurokinin (NK1); [125I]-Substance P) | A9: inhibition of radioligand binding, human neuropeptide Y (NPY-Y1) ([2]; [125I]-PYY) | A1 radioligand binding inhibition (Human δ-opioid (DOP)) | A2 radioligand binding inhibition (Human κ-Opioid (KOP)) | A3 radioligand binding inhibition (Human Melanocortin (MC3)) | A4 radioligand binding inhibition (Human Melanocortin (MC4)) | A5 radioligand binding inhibition (Human melanocortin (MC5)) | A6 radioligand binding inhibition [1] | A7 radioligand binding inhibition (Human μ-opioid (MOP)) | A8 radioligand binding inhibition (Human neurokinin (NK1)) | A9 radioligand binding inhibition [2] | A10 radioligand binding inhibition (Human opioid (ORL1)) | A11 radioligand binding inhibition (Mouse urotensin (mUR2)) | further results
CSC1OC(COCc2cccc(N)c2)C(O)C(OCc2ccccc2)C1NC(=O)c1c[nH]c2ccccc12 (stereo not drawn) [compound 326] | − (“−” indicates less than 50% inhibition at 10 μM) | − (“−” indicates less than 50% inhibition at 10 μM) | − (“−” indicates less than 50% inhibition at 10 μM) | − (“−” indicates less than 50% inhibition at 10 μM) | − (“−” indicates less than 50% inhibition at 10 μM) | − (“−” indicates less than 50% inhibition at 10 μM) | − (“−” indicates less than 50% inhibition at 10 μM) | + (“+” indicates greater than 50% inhibition at 10 μM) | − (“−” indicates less than 50% inhibition at 10 μM) | – | – | – | – | – | – | – | – | – | – | – | A10: inhibition of radioligand binding, human opioid (ORL1) (Human opioid (ORL1); [125I]-Nociceptin): − (“−” indicates less than 50% inhibition at 10 μM); A11: inhibition of radioligand binding, mouse urotensin (mUR2) (Mouse urotensin (mUR2); [125I]-Urotensin II): − (“−” indicates less than 50% inhibition at 10 μM)
CO[C@H]1[C@H](O)[C@@H](COCc2ccc3ccccc3c2)OC(OCc2ccc3ccccc3c2)[C@@H]1NC(=O)CCCN (stereo partly drawn) [compound 72] | – | – | – | – | – | – | – | – | – | − (“−” indicates less than 50% inhibition at 10 μM) | − (“−” indicates less than 50% inhibition at 10 μM) | − (“−” indicates less than 50% inhibition at 10 μM) | + (“+” indicates greater than 50% inhibition at 10 μM) | + (“+” indicates greater than 50% inhibition at 10 μM) | − (“−” indicates less than 50% inhibition at 10 μM) | − (“−” indicates less than 50% inhibition at 10 μM) | + (“+” indicates greater than 50% inhibition at 10 μM) | − (“−” indicates less than 50% inhibition at 10 μM) | − (“−” indicates less than 50% inhibition at 10 μM) | − (“−” indicates less than 50% inhibition at 10 μM) | –
COCC1OC(OCc2ccccc2)C(NC(=O)CNC(=N)N)C(OCc2ccc(-c3ccccc3)cc2)C1O (stereo not drawn) [compound 183] | – | – | – | – | – | – | – | – | – | – | – | – | – | – | – | – | – | – | – | – | A1 radioligand binding, percentage inhibition (Human δ-opioid (DOP); [3H]-Bremazocine): − (“−” indicates less than 50% inhibition at 10 μM); A2 radioligand binding, percentage inhibition (Human κ-Opioid (KOP); [3H]-Diprenorphine): − (“−” indicates less than 50% inhibition at 10 μM); A3 radioligand binding, percentage inhibition (Human Melanocortin (MC3); [125I]-NDP-αMSH): − (“−” indicates less than 50% inhibition at 10 μM); A4 radioligand binding, percentage inhibition (Human Melanocortin (MC4); [125I]-NDP-αMSH): + (“+” indicates greater than 50% inhibition at 10 μM); A5 radioligand binding, percentage inhibition (Human melanocortin (MC5); [125I]-NDP-αMSH): + (“+” indicates greater than 50% inhibition at 10 μM); A6 radioligand binding, percentage inhibition ([1]; [125I]-S36057): + (“+” indicates greater than 50% inhibition at 10 μM); A7 radioligand binding, percentage inhibition (Human μ-opioid (MOP); [3H]-Naloxone): − (“−” indicates less than 50% inhibition at 10 μM); A8 radioligand binding, percentage inhibition (Human neurokinin (NK1); [125I]-Substance P): + (“+” indicates greater than 50% inhibition at 10 μM); A9 radioligand binding, percentage inhibition ([2]; [125I]-PYY): − (“−” indicates less than 50% inhibition at 10 μM); A10 radioligand binding, percentage inhibition (Human opioid (ORL1); [125I]-Nociceptin): − (“−” indicates less than 50% inhibition at 10 μM); A11 radioligand binding, percentage inhibition (Mouse urotensin (mUR2); [125I]-Urotensin II): − (“−” indicates less than 50% inhibition at 10 μM)
COC[C@H]1OC(OCCc2ccccc2)[C@H](NC(=O)CCNC(=N)N)[C@@H](OCc2ccc3ccccc3c2)[C@@H]1O (stereo partly drawn) [compound 45] | – | – | – | – | – | – | – | – | – | − (“−” indicates less than 50% inhibition at 10 μM) | − (“−” indicates less than 50% inhibition at 10 μM) | − (“−” indicates less than 50% inhibition at 10 μM) | + (“+” indicates greater than 50% inhibition at 10 μM) | − (“−” indicates less than 50% inhibition at 10 μM) | − (“−” indicates less than 50% inhibition at 10 μM) | − (“−” indicates less than 50% inhibition at 10 μM) | + (“+” indicates greater than 50% inhibition at 10 μM) | − (“−” indicates less than 50% inhibition at 10 μM) | − (“−” indicates less than 50% inhibition at 10 μM) | − (“−” indicates less than 50% inhibition at 10 μM) | –
COCC1OC(NC(=O)Cc2ccccc2)C(NC(=O)CCCN)C(OCc2ccc3ccccc3c2)C1O (stereo not drawn) [compound 543] | − (“−” indicates less than 50% inhibition at 10 μM) | − (“−” indicates less than 50% inhibition at 10 μM) | − (“−” indicates less than 50% inhibition at 10 μM) | − (“−” indicates less than 50% inhibition at 10 μM) | − (“−” indicates less than 50% inhibition at 10 μM) | − (“−” indicates less than 50% inhibition at 10 μM) | − (“−” indicates less than 50% inhibition at 10 μM) | + (“+” indicates greater than 50% inhibition at 10 μM) | − (“−” indicates less than 50% inhibition at 10 μM) | – | – | – | – | – | – | – | – | – | – | – | A10: inhibition of radioligand binding, human opioid (ORL1) (Human opioid (ORL1); [125I]-Nociceptin): − (“−” indicates less than 50% inhibition at 10 μM); A11: inhibition of radioligand binding, mouse urotensin (mUR2) (Mouse urotensin (mUR2); [125I]-Urotensin II): − (“−” indicates less than 50% inhibition at 10 μM)
CO[C@H]1[C@H](O)[C@@H](COCc2ccccc2)OC(OCc2ccc(-c3ccccc3)cc2)[C@@H]1NC(=O)CCCNC(=N)N (stereo partly drawn) [compound 61] | – | – | – | – | – | – | – | – | – | − (“−” indicates less than 50% inhibition at 10 μM) | + (“+” indicates greater than 50% inhibition at 10 μM) | − (“−” indicates less than 50% inhibition at 10 μM) | − (“−” indicates less than 50% inhibition at 10 μM) | + (“+” indicates greater than 50% inhibition at 10 μM) | − (“−” indicates less than 50% inhibition at 10 μM) | + (“+” indicates greater than 50% inhibition at 10 μM) | + (“+” indicates greater than 50% inhibition at 10 μM) | − (“−” indicates less than 50% inhibition at 10 μM) | − (“−” indicates less than 50% inhibition at 10 μM) | − (“−” indicates less than 50% inhibition at 10 μM) | –
